Experimental data from patent US7872030B2, “Use of 2-[5-(4-fluorophenyl)-3-pyridylmethylaminomethyl]-chromane and its physiologically acceptable salts” (Merck Patent GmbH, priority 2001, dated 2011).

Tests used:
rats = experiment: Induction of catalepsy in rats (extrapyramidal motor side effects); assay type: in vivo, rat; conditions: doses up to 500fold higher compared to the doses effective in the animal models
Protocol: (§1) Extrapyramidal motor side effects in e.g. rodents are measured by the ability of a drug to induce catalepsy. Catalepsy is defined as a state where an animal continues to remain in an unnormal (nonphysiological ‘uncomfortable’) posture for a long time (e.g.: M. E. Stanley and S. D. Glick, Neuropharmacology, 1996; 15: 393-394; C. J. E. Niemegeers and P. Janssen, Life Sci., 1979, […]). For example, if a hindpaw of a rat is placed on an elevated level, e.g. a platform elevated 3 cm above ground level, a normal rat immediately withdraws the hindpaw from the platform to the ground level. A cataleptic rat remains in this unnatural posture even for minutes.

[1] = test system: rats challenged with haloperidol; experiment: Neuroleptics-induced muscle rigidity in rats; conditions: rat, in vivo
Text: A typical animal model is neuroleptics-induced muscle rigidity in rats according to S. Wolfarth et al, Arch. Pharmacol. 1992; 345: 209-212. Rats are challenged with the conventional neuroleptic drug haloperidol which enhances muscle tone. Muscle tone is electromechanically measured as the resistence to passive flexion and extension of the hind limb.

[2] = test system: catalepsy induced by haloperidol; experiment: Catalepsy induced by conventional antidopaminergic drugs such as haloperidol; assay type: in vivo, rat; conditions: same dose-range as effective in the animal models
Protocol: as §1

[3] = test system: rats with nigrostriatal degeneration; experiment: Striatonigral degeneration in the rat, turning behavior; assay type: in vivo; conditions: 6-hydroxydopamine plus quinolinic acid lesioned rats
Text: Another more recent animal model is the striatonigral degeneration approach in the rat according to […] et al., J. Neural Transm. Suppl., 1999; 55: 103-113. Rats receive an unilateral injection of 6-hydroxydopamine into the left medial forebrain bundle followed by an injection of quinolinic acid into the ipsilateral striatum inducing nigrostriatal degeneration. The degeneration results in turning behavior to a challenge with dopaminomimetics such as apomorphine or amphetamine. Turning behavior is measured by an automated recorder.

[4] = test system: neuroleptics sensitized monkey; experiment: Neuroleptics sensitized monkey; assay type: in vivo; conditions: after haloperidol challenge
Text: Another typical animal model is the neuroleptics sensitized monkey according to D. E. Casey, Psychopharmacology, 1996; 124: 134-140. Monkeys treated repeatedly with conventional neuroleptics are highly sensitive to a subsequent challenge dose of neuroleptic drugs. When challenged, the monkeys immediately show extrapyramidal motor side effects such as dystonia, dyskinesias, akathisia, and bradykinesia which are rated by a scoring system. The conventional neuroleptic drug haloperidol is given as a challenge.

dopamine D2 receptor = dopamine D2 receptor (Homo sapiens, UniProt P14416); experiment: D2 antagonism; conditions: under increased doses
Sequence of dopamine D2 receptor (P14416 whole entry, species assumed): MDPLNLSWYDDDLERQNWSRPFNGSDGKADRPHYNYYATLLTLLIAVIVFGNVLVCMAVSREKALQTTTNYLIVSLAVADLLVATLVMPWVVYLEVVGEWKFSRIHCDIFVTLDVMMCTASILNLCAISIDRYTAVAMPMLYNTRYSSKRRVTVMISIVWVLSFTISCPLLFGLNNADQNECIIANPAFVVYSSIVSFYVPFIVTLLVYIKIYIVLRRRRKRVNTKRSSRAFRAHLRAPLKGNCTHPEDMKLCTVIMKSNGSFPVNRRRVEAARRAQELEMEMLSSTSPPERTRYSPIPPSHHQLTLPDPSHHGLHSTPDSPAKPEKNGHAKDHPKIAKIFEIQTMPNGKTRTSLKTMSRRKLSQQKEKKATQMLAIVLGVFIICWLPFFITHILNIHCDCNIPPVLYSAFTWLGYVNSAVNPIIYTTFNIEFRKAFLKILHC

dopamine D3 receptor = dopamine D3 receptor (Homo sapiens, UniProt P35462)
Sequence of dopamine D3 receptor (P35462 whole entry, species assumed): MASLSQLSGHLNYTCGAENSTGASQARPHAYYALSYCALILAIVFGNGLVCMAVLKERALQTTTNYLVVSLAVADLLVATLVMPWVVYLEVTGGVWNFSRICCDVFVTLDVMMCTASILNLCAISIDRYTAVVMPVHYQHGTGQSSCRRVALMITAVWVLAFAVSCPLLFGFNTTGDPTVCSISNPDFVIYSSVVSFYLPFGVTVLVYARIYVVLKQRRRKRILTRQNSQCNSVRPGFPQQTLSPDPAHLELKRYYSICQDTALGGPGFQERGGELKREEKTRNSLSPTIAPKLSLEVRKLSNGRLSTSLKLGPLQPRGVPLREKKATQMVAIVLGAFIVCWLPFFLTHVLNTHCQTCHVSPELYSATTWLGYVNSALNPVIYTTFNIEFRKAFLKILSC

3-NP treated rats = experiment: Systemic 3-nitropropionic acid (3-NP) model in rats; assay type: in vivo, rat; conditions: for nocturnal akinesia (hypoactivity): after four injections of 3-NP (late Huntington's disease); for nocturnal hyperactivity: after two injections of 3-NP (early Huntington's disease)
Text: A typical animal model is the systemic 3-nitropropionic acid (3-NP) model in rats according to C. V. Borlongan et al., Brain Res., 1995; 697: 254-257. […] After two injections of 3-NP, rats display nocturnal hyperactivity reflecting symptoms of early Huntington's disease, whereas rats treated with four injections of 3-NP display nocturnal akinesia (hypoactivity) reflecting symptoms of late Huntington's disease. Nocturnal activity is automatically measured in conventional acitivity cages by infrared beams.

Row | Compound | induction of catalepsy (rats) | muscle tone enhanced by haloperidol (resistance to passive flexion and extension of the hind limb) [1] | prevention of catalepsy induced by conventional antidopaminergic drugs [2] | reversal of already existing catalepsy induced by conventional antidopaminergic drugs such as haloperidol [2] | turning behavior induced by apomorphine or amphetamine [3] | extrapyramidal motor side effects (dystonia, dyskinesias, akathisia, bradykinesia; score) [4] | D2 antagonism (dopamine D2 receptor) | affinity to the dopamine D3 receptor (dopamine D3 receptor) | nocturnal akinesia (hypoactivity) (3-NP treated rats) | nocturnal hyperactivity (3-NP treated rats)
1 | Fc1ccc(-c2cncc(CNCC3CCc4ccccc4O3)c2)cc1 (racemic) [(R/S)-(−/+)-2-[5-(4-fluorophenyl)-3-pyridylmethylaminomethyl]-chromane] | do not induce any catalepsy | decrease the mucle tone enhanced by haloperidol | able to prevent catalepsy | reverses already existing catalepsy | dose-dependently antagonized | dose-dependently reduce the extrapyramidal motor side effects | exhibit a D2 antagonism | high affinity | reduce | reduce
2 | Fc1ccc(-c2cncc(CNC[C@@H]3CCc4ccccc4O3)c2)cc1 [(S)-(+)-2-[5-(4-fluorophenyl)-3-pyridylmethylaminomethyl]-chromane] | do not induce any catalepsy | decrease the mucle tone enhanced by haloperidol | able to prevent catalepsy | reverses already existing catalepsy | dose-dependently antagonized | dose-dependently reduce the extrapyramidal motor side effects | exhibit a D2 antagonism | high affinity | reduce | reduce
